According to ChEMBL document CHEMBL4507311, “Data for DCP probe A-1155463” (2021):
The source made the active and inactive calls.

Experiments:
[1] = molecular target: Serine/threonine-protein kinase MAK (Homo sapiens) (UniProt P20794); conditions: Compound concentration 1000.0 nM
[2] = molecular target: Serine/threonine-protein kinase 38 (Homo sapiens) (UniProt Q15208); conditions: Compound concentration 1000.0 nM
[3] = molecular target: Tyrosine-protein kinase Fgr (Homo sapiens) (UniProt P09769); conditions: Compound concentration 1000.0 nM
[4] = molecular target: Homeodomain-interacting protein kinase 3 (Homo sapiens) (UniProt Q9H422); conditions: Compound concentration 1000.0 nM
[5] = molecular target: Ephrin type-A receptor 2 (Homo sapiens) (UniProt P29317); conditions: Compound concentration 1000.0 nM
[6] = system: Tyrosine-protein kinase ABL1 (Homo sapiens), P00519 [Y253F]; conditions: Compound concentration 1000.0 nM
[7] = molecular target: Mitogen-activated protein kinase kinase kinase kinase 2 (Homo sapiens) (UniProt Q12851); conditions: Compound concentration 1000.0 nM
[8] = molecular target: Serine/threonine-protein kinase WNK1 (Homo sapiens) (UniProt Q9H4A3); conditions: Compound concentration 1000.0 nM
[9] = system: Phosphatidylinositol 4,5-bisphosphate 3-kinase catalytic subunit alpha isoform (Homo sapiens), P42336 [M1043I]; conditions: Compound concentration 1000.0 nM
Sequence of Phosphatidylinositol 4,5-bisphosphate 3-kinase catalytic subunit alpha isoform (Homo sapiens), P42336 [M1043I] (P42336 whole entry M1043I, canonical isoform): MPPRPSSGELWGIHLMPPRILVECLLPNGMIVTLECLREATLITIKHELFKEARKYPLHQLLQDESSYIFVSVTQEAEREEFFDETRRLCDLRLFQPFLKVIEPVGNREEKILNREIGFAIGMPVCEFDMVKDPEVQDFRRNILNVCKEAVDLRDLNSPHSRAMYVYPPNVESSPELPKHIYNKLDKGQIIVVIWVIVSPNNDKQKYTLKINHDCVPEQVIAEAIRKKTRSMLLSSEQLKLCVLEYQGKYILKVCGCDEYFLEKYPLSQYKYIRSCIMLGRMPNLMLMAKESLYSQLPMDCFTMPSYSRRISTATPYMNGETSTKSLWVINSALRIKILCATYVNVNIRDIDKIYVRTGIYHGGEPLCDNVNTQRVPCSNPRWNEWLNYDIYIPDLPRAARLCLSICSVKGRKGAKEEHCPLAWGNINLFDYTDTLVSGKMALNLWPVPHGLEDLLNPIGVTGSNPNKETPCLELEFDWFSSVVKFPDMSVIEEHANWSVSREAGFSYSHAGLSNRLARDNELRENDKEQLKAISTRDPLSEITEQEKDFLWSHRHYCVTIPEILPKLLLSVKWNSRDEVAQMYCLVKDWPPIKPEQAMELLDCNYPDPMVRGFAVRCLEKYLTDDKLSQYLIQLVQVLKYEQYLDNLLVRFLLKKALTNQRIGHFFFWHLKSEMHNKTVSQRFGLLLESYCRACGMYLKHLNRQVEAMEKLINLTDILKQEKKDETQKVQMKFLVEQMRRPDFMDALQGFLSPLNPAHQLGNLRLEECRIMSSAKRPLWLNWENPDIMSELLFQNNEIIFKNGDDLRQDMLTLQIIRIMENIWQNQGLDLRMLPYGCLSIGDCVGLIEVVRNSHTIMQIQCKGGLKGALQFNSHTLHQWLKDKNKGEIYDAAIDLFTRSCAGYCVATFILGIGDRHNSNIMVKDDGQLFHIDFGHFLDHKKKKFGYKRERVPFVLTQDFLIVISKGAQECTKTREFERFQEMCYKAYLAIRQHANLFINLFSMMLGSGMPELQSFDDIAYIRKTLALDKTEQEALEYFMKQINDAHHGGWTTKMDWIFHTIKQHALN

[10] = molecular target: Serine/threonine-protein kinase N2 (Homo sapiens) (UniProt Q16513); conditions: Compound concentration 1000.0 nM
Sequence of Serine/threonine-protein kinase N2 (Homo sapiens) (Q16513 whole entry, looked up): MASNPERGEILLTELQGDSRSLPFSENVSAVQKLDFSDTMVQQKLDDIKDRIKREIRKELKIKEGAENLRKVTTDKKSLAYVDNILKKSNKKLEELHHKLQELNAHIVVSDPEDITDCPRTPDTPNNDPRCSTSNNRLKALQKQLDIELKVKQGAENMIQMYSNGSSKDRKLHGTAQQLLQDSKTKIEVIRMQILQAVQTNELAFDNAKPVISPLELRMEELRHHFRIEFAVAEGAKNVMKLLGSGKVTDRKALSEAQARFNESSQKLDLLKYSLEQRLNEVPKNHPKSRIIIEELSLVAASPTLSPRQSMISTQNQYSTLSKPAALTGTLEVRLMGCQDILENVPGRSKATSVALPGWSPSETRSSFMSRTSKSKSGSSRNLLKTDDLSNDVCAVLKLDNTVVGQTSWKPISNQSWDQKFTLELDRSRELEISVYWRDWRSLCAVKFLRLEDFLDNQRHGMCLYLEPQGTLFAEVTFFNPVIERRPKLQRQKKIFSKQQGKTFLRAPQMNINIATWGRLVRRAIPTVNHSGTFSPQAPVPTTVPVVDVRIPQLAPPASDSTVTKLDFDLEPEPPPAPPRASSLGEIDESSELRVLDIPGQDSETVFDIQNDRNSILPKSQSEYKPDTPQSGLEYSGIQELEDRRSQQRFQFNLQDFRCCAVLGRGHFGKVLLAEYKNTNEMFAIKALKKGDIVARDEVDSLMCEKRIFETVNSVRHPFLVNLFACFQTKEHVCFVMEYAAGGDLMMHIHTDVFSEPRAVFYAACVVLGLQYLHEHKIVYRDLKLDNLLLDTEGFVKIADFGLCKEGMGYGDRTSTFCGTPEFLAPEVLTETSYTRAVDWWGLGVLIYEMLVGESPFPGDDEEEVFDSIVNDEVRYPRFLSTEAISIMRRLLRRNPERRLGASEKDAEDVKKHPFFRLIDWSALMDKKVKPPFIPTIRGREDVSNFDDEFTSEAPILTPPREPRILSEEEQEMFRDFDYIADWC

[11] = molecular target: Testis-specific serine/threonine-protein kinase 1 (Homo sapiens) (UniProt Q9BXA7); conditions: Compound concentration 1000.0 nM
[12] = molecular target: Fibroblast growth factor receptor 1 (Homo sapiens) (UniProt P11362); conditions: Compound concentration 1000.0 nM
[13] = molecular target: Calcium/calmodulin-dependent protein kinase type 1G (Homo sapiens) (UniProt Q96NX5); conditions: Compound concentration 1000.0 nM
Sequence of Calcium/calmodulin-dependent protein kinase type 1G (Homo sapiens) (Q96NX5 whole entry): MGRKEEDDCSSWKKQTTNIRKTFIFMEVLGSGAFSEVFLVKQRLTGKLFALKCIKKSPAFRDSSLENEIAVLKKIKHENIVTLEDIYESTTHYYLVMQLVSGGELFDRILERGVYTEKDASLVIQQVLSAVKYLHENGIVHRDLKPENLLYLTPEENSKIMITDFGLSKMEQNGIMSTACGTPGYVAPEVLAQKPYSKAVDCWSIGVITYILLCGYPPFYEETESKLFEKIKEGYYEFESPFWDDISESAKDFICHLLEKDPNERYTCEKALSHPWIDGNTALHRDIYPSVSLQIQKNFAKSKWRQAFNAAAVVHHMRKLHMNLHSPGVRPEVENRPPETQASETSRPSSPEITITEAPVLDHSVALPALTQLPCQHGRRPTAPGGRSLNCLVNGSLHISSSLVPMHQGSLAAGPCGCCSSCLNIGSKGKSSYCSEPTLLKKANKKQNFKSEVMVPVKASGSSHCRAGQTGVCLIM

[14] = molecular target: Hepatocyte growth factor receptor (Homo sapiens) (UniProt P08581); conditions: Compound concentration 1000.0 nM
[15] = molecular target: Mitogen-activated protein kinase 15 (Homo sapiens) (UniProt Q8TD08); conditions: Compound concentration 1000.0 nM
[16] = molecular target: Histamine H4 receptor (Homo sapiens) (UniProt Q9H3N8); conditions: Compound concentration 10.0 uM
Sequence of Histamine H4 receptor (Homo sapiens) (Q9H3N8 whole entry): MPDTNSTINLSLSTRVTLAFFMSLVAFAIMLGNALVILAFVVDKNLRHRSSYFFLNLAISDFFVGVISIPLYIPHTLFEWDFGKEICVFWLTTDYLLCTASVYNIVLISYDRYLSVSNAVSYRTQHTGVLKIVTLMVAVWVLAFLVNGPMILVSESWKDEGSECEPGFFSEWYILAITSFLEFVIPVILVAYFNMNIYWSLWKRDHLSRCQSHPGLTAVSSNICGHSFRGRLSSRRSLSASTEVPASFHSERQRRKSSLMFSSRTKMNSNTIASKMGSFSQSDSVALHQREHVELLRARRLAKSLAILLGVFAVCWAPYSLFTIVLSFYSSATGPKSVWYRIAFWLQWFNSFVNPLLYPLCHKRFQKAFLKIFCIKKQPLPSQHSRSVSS

[17] = molecular target: Mitogen-activated protein kinase kinase kinase 13 (Homo sapiens) (UniProt O43283); conditions: Compound concentration 1000.0 nM
[18] = molecular target: Cyclin-dependent kinase 19 (Homo sapiens) (UniProt Q9BWU1); conditions: Compound concentration 1000.0 nM
Sequence of Cyclin-dependent kinase 19 (Homo sapiens) (Q9BWU1 whole entry): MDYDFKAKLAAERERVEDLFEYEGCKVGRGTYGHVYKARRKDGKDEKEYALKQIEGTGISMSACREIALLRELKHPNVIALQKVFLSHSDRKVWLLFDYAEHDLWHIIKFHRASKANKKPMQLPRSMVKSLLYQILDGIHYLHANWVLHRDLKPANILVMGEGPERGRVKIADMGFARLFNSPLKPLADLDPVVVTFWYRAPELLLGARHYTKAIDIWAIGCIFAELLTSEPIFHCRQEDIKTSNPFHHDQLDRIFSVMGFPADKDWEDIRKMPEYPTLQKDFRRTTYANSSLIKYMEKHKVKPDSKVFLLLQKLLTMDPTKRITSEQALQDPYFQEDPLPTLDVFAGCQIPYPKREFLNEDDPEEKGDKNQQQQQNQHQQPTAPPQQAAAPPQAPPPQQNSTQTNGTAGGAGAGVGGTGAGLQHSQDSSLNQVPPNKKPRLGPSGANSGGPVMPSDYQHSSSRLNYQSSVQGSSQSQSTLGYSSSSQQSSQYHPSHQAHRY

[19] = molecular target: NUAK family SNF1-like kinase 2 (Homo sapiens) (UniProt Q9H093); conditions: Compound concentration 1000.0 nM
[20] = molecular target: SRSF protein kinase 2 (Homo sapiens) (UniProt P78362); conditions: Compound concentration 1000.0 nM
[21] = molecular target: Cyclin-dependent kinase 15 (Homo sapiens) (UniProt Q96Q40); conditions: Compound concentration 1000.0 nM
[22] = molecular target: Ribosomal protein S6 kinase alpha-6 (Homo sapiens) (UniProt Q9UK32); conditions: Compound concentration 1000.0 nM
[23] = molecular target: SRSF protein kinase 3 (Homo sapiens) (UniProt Q9UPE1); conditions: Compound concentration 1000.0 nM
[24] = molecular target: Ephrin type-A receptor 6 (Homo sapiens) (UniProt Q9UF33); conditions: Compound concentration 1000.0 nM
NCI-H146 = experiment: CellTiter-Glo Luminescent Cell Viability Assay (BCL-XL dependent cell line H146); type: functional, cell-based; conditions: Homo sapiens
[25] = molecular target: Interleukin-1 receptor-associated kinase 4 (Homo sapiens) (UniProt Q9NWZ3); conditions: Compound concentration 1000.0 nM
[26] = molecular target: Serine/threonine-protein kinase SIK1 (Homo sapiens) (UniProt P57059); conditions: Compound concentration 1000.0 nM
[27] = system: eIF-2-alpha kinase GCN2 (Homo sapiens), Q9P2K8 [S808G]; conditions: Compound concentration 1000.0 nM
Sequence of eIF-2-alpha kinase GCN2 (Homo sapiens), Q9P2K8 [S808G] (Q9P2K8 whole entry S808G): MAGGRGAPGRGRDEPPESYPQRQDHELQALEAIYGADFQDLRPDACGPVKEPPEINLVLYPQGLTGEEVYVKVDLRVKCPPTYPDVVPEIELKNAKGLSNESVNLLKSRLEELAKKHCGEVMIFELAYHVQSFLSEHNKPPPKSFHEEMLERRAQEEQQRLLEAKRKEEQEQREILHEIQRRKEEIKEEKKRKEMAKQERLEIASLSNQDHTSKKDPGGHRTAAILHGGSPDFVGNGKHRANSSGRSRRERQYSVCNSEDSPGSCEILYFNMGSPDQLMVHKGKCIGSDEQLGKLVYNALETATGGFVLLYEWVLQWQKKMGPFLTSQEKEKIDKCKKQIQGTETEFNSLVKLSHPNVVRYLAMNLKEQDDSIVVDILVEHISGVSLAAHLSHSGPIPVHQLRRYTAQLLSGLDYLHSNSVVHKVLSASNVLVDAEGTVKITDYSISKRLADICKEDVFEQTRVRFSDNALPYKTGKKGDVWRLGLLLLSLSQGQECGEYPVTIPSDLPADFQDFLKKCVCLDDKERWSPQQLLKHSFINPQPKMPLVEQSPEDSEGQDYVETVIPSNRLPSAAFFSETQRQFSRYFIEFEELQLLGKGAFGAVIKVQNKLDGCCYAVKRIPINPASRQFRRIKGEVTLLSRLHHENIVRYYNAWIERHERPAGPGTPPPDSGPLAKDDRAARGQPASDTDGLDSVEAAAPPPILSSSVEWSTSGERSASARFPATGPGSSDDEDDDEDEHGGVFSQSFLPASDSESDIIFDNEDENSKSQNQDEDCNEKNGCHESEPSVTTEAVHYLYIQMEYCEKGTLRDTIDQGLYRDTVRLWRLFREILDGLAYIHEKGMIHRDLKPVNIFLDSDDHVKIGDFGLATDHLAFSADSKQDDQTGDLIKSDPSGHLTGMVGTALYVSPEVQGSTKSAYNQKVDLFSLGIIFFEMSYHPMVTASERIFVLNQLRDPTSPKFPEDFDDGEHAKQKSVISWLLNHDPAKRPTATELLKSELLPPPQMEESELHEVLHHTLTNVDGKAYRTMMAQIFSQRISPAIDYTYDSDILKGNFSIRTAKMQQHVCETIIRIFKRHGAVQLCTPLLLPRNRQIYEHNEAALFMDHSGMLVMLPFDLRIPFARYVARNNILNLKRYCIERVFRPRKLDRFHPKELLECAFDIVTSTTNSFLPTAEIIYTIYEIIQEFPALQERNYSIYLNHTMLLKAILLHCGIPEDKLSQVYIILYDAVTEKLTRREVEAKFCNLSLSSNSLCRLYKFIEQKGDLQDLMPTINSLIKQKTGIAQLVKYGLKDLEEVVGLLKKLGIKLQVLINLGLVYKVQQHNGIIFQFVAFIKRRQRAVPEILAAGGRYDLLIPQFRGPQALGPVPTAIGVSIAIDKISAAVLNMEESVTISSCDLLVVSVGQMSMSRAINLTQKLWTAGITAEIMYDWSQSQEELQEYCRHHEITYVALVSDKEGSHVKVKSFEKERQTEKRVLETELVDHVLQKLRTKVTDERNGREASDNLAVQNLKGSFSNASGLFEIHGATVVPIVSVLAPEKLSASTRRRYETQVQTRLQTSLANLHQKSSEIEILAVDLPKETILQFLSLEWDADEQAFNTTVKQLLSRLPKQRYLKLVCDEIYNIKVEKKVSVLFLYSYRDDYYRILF

[28] = molecular target: Transient receptor potential cation channel subfamily M member 6 (Homo sapiens) (UniProt Q9BX84); conditions: Compound concentration 1000.0 nM
[29] = molecular target: Dual specificity tyrosine-phosphorylation-regulated kinase 1A (Homo sapiens) (UniProt Q13627); conditions: Compound concentration 1000.0 nM
[30] = molecular target: Tyrosine-protein kinase TXK (Homo sapiens) (UniProt P42681); conditions: Compound concentration 1000.0 nM
[31] = molecular target: 5-hydroxytryptamine receptor 1E (Homo sapiens) (UniProt P28566); conditions: Compound concentration 10.0 uM
[32] = molecular target: Tyrosine-protein kinase receptor TYRO3 (Homo sapiens) (UniProt Q06418); conditions: Compound concentration 1000.0 nM
[33] = molecular target: Insulin receptor-related protein (Homo sapiens) (UniProt P14616); conditions: Compound concentration 1000.0 nM
[34] = molecular target: T1, Alpha-1B adrenergic receptor (Homo sapiens) (UniProt P35368); conditions: Compound concentration 10.0 uM
T1 sequence (whole entry): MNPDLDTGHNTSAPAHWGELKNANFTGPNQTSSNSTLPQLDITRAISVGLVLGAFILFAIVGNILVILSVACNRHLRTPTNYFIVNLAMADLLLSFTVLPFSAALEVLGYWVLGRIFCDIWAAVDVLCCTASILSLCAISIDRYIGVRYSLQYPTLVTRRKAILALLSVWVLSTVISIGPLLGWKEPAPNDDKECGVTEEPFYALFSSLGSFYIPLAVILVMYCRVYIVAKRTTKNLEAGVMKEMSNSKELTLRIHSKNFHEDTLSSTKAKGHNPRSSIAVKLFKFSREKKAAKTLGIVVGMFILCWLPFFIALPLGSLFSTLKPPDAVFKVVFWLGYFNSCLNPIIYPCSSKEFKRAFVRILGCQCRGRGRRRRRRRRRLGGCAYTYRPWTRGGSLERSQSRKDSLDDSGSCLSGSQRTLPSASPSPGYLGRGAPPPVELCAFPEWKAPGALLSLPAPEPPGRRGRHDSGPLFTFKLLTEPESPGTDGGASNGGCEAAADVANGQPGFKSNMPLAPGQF

[35] = molecular target: Protein kinase C epsilon type (Homo sapiens) (UniProt Q02156); conditions: Compound concentration 1000.0 nM
[36] = system: Epidermal growth factor receptor (Homo sapiens), P00533 [UNDEFINED MUTATION]; conditions: Compound concentration 1000.0 nM
[37] = molecular target: Cyclin-dependent kinase 9 (Homo sapiens) (UniProt P50750); conditions: Compound concentration 1000.0 nM

CN(C)CC#Cc1ccc(OCCCc2sc(N3CCc4cccc(C(=O)Nc5nc6ccccc6s5)c4C3)nc2C(=O)O)c(F)c1 [A-1155463]
inactive: residual activity [1] 100% | residual activity [2] 76% | residual activity [3] 100% | residual activity [4] 87% | residual activity [5] 92% | residual activity [6] 93% | residual activity [7] 100% | residual activity [8] 90% | residual activity [9] 96% | residual activity [10] 100% | residual activity [11] 70% | residual activity [12] 100% | residual activity [13] 94% | residual activity [14] 61% | residual activity [15] 100% | inhibition [16] 6.5% | residual activity [17] 96% | residual activity [18] 95% | residual activity [19] 82% | residual activity [20] 100% | residual activity [21] 100% | residual activity [22] 97% | residual activity [23] 100% | residual activity [24] 100% | residual activity [25] 100% | residual activity [26] 100% | residual activity [27] 83% | residual activity [28] 84% | residual activity [29] 88% | residual activity [30] 100% | inhibition [31] -4.32% | residual activity [32] 94% | residual activity [33] 90% | inhibition [34] 0.97% | residual activity [35] 100% | residual activity [36] 100% | residual activity [37] 94%
active: EC50 (NCI-H146) 70 nM
